Assays:
Assay in all cases: relative viability (nuclei count vs DMSO), 5 days (fraction); higher = more cells survive
XMD8-85 + Phenformin = compound: CN1CCN(CC1)C2=CC(=C(C=C2)NC3=NC=C4C(=N3)N(C5=CC=CC=C5C(=O)N4C)C)OC [XMD8-85] + N=C(N)NC(=N)NCCc1ccccc1 [Phenformin] (partner 250 µM)
How it was run: (§1)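 Relative viability was taken as the ratio of nuclei in treated wells to nuclei in vehicle wells. Lung cancer cell lines in 1536-well plates received compounds by pin tool one day after seeding, either one drug alone or a fixed anchor-drug dose plus five library-drug doses (not always all listed) in √10 steps. Nuclei were counted on 4× images after 5 days of treatment, and values are medians of duplicate plates.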

4EGI-1 + Vorinostat = compound: O=C(O)C(Cc1ccccc1[N+](=O)[O-])=NNc1nc(-c2ccc(Cl)c(Cl)c2)cs1 (mixture of isomers) [4EGI-1] + O=C(CCCCCCC(=O)Nc1ccccc1)NO [Vorinostat] (partner 1 µM)
How it was run: as §1

4EGI-1 + Lapatinib = compound: O=C(O)C(Cc1ccccc1[N+](=O)[O-])=NNc1nc(-c2ccc(Cl)c(Cl)c2)cs1 (mixture of isomers) [4EGI-1] + CS(=O)(=O)CCNCc1ccc(-c2ccc3ncnc(Nc4ccc(OCc5cccc(F)c5)c(Cl)c4)c3c2)o1 [Lapatinib] (partner 2 µM)
How it was run: as §1

XMD8-85 + Vorinostat = compound: CN1CCN(CC1)C2=CC(=C(C=C2)NC3=NC=C4C(=N3)N(C5=CC=CC=C5C(=O)N4C)C)OC [XMD8-85] + O=C(CCCCCCC(=O)Nc1ccccc1)NO [Vorinostat] (partner 1 µM)
How it was run: as §1

Cell Line	relative viability (XMD8-85 + Phenformin; first compound 0.08 µM)	relative viability (XMD8-85 + Phenformin; first compound 0.253 µM)	relative viability (XMD8-85 + Phenformin; first compound 0.8 µM)	relative viability (XMD8-85 + Phenformin; first compound 2.53 µM)	relative viability (XMD8-85 + Phenformin; first compound 8 µM)	relative viability (4EGI-1 + Vorinostat; first compound 0.5 µM)	relative viability (4EGI-1 + Vorinostat; first compound 1.581 µM)	relative viability (4EGI-1 + Vorinostat; first compound 5 µM)	relative viability (4EGI-1 + Vorinostat; first compound 15.81 µM)	relative viability (4EGI-1 + Vorinostat; first compound 50 µM)	relative viability (4EGI-1 + Lapatinib; first compound 0.5 µM)	relative viability (4EGI-1 + Lapatinib; first compound 1.581 µM)	relative viability (4EGI-1 + Lapatinib; first compound 5 µM)	relative viability (4EGI-1 + Lapatinib; first compound 15.81 µM)	relative viability (4EGI-1 + Lapatinib; first compound 50 µM)	relative viability (XMD8-85 + Vorinostat; first compound 0.253 µM)	relative viability (XMD8-85 + Vorinostat; first compound 0.8 µM)	relative viability (XMD8-85 + Vorinostat; first compound 2.53 µM)	relative viability (XMD8-85 + Vorinostat; first compound 8 µM)	relative viability (XMD8-85 + Vorinostat; first compound 0.08 µM)
NCI-H358	0.301	0.314	0.312	0.385	0.167	0.609	0.613	0.663	0.319	0.0967	0.483	0.437	0.603	0.395	0.211	0.635	0.71	0.619	0.261	
NCI-H460	0.377	0.59	0.545	0.578	0.1	0.713	0.353	0.714	0.436	0.0364	1.09		0.975	0.131	0.0327	0.786	0.672	0.766	0.146	0.53
NCI-H520	0.574	0.6	0.557	0.543	0.446	0.877	0.73	0.887	0.773	0.153	0.98	0.882	0.963	0.738	0.144	0.69		0.673	0.331	0.774
NCI-H596	0.571	0.749	0.636	0.709	0.8	0.648	0.495	0.6	0.475	0.375	1.07	1.03	1.23	0.958	0.609	0.559	0.495	0.53	0.361	0.517
NCI-H647	0.258	0.522	0.528	0.465	0.307	0.837	0.53	0.689	0.477	0.0731	1.03	0.989	1.08	0.505	0.124	0.746	0.673	0.632	0.346	0.573
NCI-H650		0.44	0.439	0.436	0.306	0.528		0.472	0.488	0.296	1.28		1.12	0.918	0.652	0.388	0.433	0.465	0.295	0.447
NCI-H661	0.292	0.287	0.278	0.276	0.287	0.856	0.702	0.789	0.681	0.353	0.666	0.46	0.566	0.43	0.342	0.788	0.809	0.743	0.588	0.835
NCI-H727	0.503	0.547	0.523	0.524	0.456	1.13	0.94	1.22	1.04	0.714	0.96	0.712	0.96	0.724	0.391	1.23	1.17	1.24	0.984	1.09
NCI-H838	0.528	0.553	0.604	0.617	0.283	0.724	0.732	0.738	0.605	0.263	1.24		1.16	0.654	0.173	0.739	0.706	0.641	0.409	0.729
NCI-H1355	0.417	0.409	0.422	0.437	0.408	0.698	0.586	0.662	0.595	0.514	1.11	0.931	1.03	0.989	0.586	0.564	0.642	0.655	0.545	0.682
NCI-H1395	0.483	0.421	0.447	0.414	0.409	0.833		0.858	0.669	0.397	0.975		1.18	0.832	0.413	0.668	0.739	0.887	0.406	0.556
NCI-H1437		0.299	0.338	0.329	0.268	0.975	0.805	0.776	0.418	0.206	0.914	0.861	0.671	0.184	0.127	0.879	0.94	0.751	0.482	0.93
NCI-H1650	0.411	0.449	0.401	0.36	0.178	0.637		0.649	0.356	0.157	0.953		0.825	0.374	0.256	0.596	0.594	0.578	0.253	0.674
NCI-H1651	0.349	0.312	0.265	0.366	0.298	0.523	0.477	0.629	0.481	0.408	0.993	0.85	0.813	0.665	0.185	0.562	0.5	0.546	0.449	0.602
NCI-H1666	0.578	0.601	0.574	0.567	0.576	0.997	1.12	0.949	0.992	0.604	0.743	0.616	0.653	0.526	0.229	1.03	0.996	0.947	0.92	1.13
NCI-H1734	0.397	0.331	0.369	0.382	0.348	0.965	0.67	0.966	0.545	0.329	1.15	0.939	1.15	0.903	0.393	0.84	0.826	0.768	0.56	0.788
